Assay results taken from EP2884284A1, “Dry diagnostic reagent” (priority 2013, dated 2015).

Columns and labels:
citrated whole blood [1] = experiment: ROTEM NATEM assay, recalcification only (contact pathway activation)
Method: (§1) The influence of CLG on coagulation was determined using a ROTEM® device (TEM Innovations GmbH, Germany) and whole blood from healthy volunteers using either the EXTEM assay or the NATEM assay. Coagulation was therefore either initiated using the tissue factor based ex-tem® reagent (+recalcification) (TEM Innovations GmbH, Germany) or only by recalcification of the citrated whole blood sample. […]; ROTEM® reagent; TEM Innovations GmbH, Germany). Solutions of CLG were taken to show the influence of the substance independent of the dissolution behavior of the substance.
In addition the clotting properties were investigated when coagulation of whole blood (using 300µL of citrated whole blood) was not initiated using tissue factor but only contact pathway activation, i.e. the citrated whole blood was recalcified using either the star-tem@ reagent or a CLG solution. The measurement was performed according to the automated ROTEM® sequence. Normal values were taken from the "expected values" section of the "instructions for use" sheet provided together with the star-tem@ reagent. A comparison was carried out with the star-tem@ reagent and the CLG solution with a concentration of 396 mg/mL of example 2. […] Table 1: Measurement values of the data determined in Example 2

citrated whole blood [2] = experiment: ROTEM ex-tem assay, recalcification with freeze-dried pellets; conditions: p = 0.05, n = 10
Method: The compatibility with coagulation measurement was determined using the ROTEM® device. The measurement was conducted according to the respective automated ROTEM® sequence. 300 µL citrated whole blood (obtained from healthy individuals) were used for each measurement. The pipetting of the respective liquid reagents was performed according to the sequence or was skipped for the solid reagents. […] Coagulation was initiated using the tissue factor based ex-tem® reagent.
The ex-tem® assay was selected because of the tissue factor coagulation activation and the resulting short clotting times (CT). Therefore it was possible to investigate whether the freeze-dried products containing a high amount of solid would dissolve rapidly enough to assure complete recalcification and clotting times within a normal range.

[3] = Hygroscopicity measurement by mass increase in a glove box at relative air humidity > 50%; assay type: physicochemical; conditions: 1.0g sample, 22.5°C to […], 96 hours, referring to the initial mass
Method: The hygroscopicity of compounds was measured by weighing (Mettler AT261 "Delta Range" balance) in the samples at the start of the experiment and at certain time points within a total period of 96 hours. The increase in mass (in %) was calculated for each sample as: (mt -mt0)/(mt0) × 100% [formula] • wherein mt is the mass of the sample at a certain time t and Mt0 is the mass of the sample at the start when placing it in the glove box.

citrated whole blood [4] = experiment: ROTEM EXTEM assay, recalcification with CLG solutions, tissue factor activation; conditions: CLG solution 396 mg/mL, 4 µL in 300 µL citrated whole blood, extem reagent, student t test p = 0.05, n = 10
Method: as §1
In detail, 300 µL citrated whole blood were taken, mixed with 4 µL of the respective solution of CLG of each concentration or of the star-tem@ reagent, and 16 µL of a 0.9% (m/V) NaCl-solution in ultrapure water. Blood clotting was initiated using the tissue factor based extem® reagent. […] Therefore it is possible to recalcify standard citrated whole blood and restore its clotting ability by using CLG solutions. This is depicted in Figure 2, wherein the data of a ROTEM experiment using two differently concentrated solutions of CLG (320 mg/mL and 396 mg/mL) were used. […]

[5] = Glass transition temperature Tg by differential scanning calorimetry; assay type: physicochemical
Method: Hydranal® Coulomat AG Oven served as a reagent. About 10 mg of the substance was used for an expected residual moisture between 5 - 10%(m/m) and about 50 - 80 mg were used for an expected moisture content […]. […]
Primary drying was carried out at Tinlet = -30° C / 30mtorr for 15h followed by secondary drying at 40°C / 30mtorr for 6h with a heating rate between the two steps of 0.3 °C/min. The glass transition temperature as well as the residual moisture content were measured after freeze drying for the respective substance.

[6] = Dissolution of the freeze-dried product on contact with a water surface; assay type: physicochemical; conditions: freeze-dried from c = 320 mg/mL
Description: In addition, no collapse or meltback could be detected when CLG was freeze-dried appropriately. CLG is, however, evidently metastable as a solid, i.e. amorphous.

[7] = 300µL citrated whole blood, CLG solution 396 mg/mL or star-tem reagent, no tissue factor
[8] = freeze-dried CLG pellets, 4µmol equivalent
[9] = freeze-dried CLG pellets, lower amount of CLG

calcium lacto gluconate [CLG]
CFT (citrated whole blood [1]; [7]): 183.00
alpha (citrated whole blood [1]; [7]): 54.67 °
difference between clotting time (citrated whole blood [1]; CLG solution 396 mg/mL versus star-tem reagent): around 3%
A10 (citrated whole blood [1]; amplitude after 10 minutes, 300µL citrated whole blood, CLG solution 396 mg/mL or star-tem reagent, no tissue factor): 42.33
MCF (citrated whole blood [1]; maximum clot firmness, 300µL citrated whole blood, CLG solution 396 mg/mL or star-tem reagent, no tissue factor): 51.33
CT values, difference to reference (citrated whole blood [2]; freeze-dried CLG pellets versus 20µL star-tem reagent, ex-tem activation): no significant (p = 0.05; n = 10) difference
amplitudes after 10 minutes reaction time (A10), difference to reference (citrated whole blood [2]; [8]): Neither the clot formation times (CFT) nor the amplitudes after 10 minutes reaction time (A10) of the 4µmol equivalent did significantly (p = 0.05, n = 10) differ from the reference
clot formation times (CFT), difference to reference (citrated whole blood [2]; [8]): Neither the clot formation times (CFT) nor the amplitudes after 10 minutes reaction time (A10) of the 4µmol equivalent did significantly (p = 0.05, n = 10) differ from the reference
A10, difference to reference (citrated whole blood [2]; [9]): slight but significant (p = 0.05, n = 10) variations
CFT, difference to reference (citrated whole blood [2]; [9]): slight but significant (p = 0.05, n = 10) variations
mass increase [3]: < 0.1%
clotting time (CT), difference to star-tem solution (citrated whole blood [4]): no significant (student t test; probability p = 0.05, n = 10) difference
glass transition ([5]; 1:1 (CL:CG) mixture, moisture content 5.71 % [m/m]): ~87.20 °C
glass transition ([5]; 2:1 (CL:CG) mixture, moisture content 6.52 % [m/m]): about 84.90 °C
Tg ([5]; CLG ratio 0, moisture content 0 %(m/m)): 110.03 °C
Tg ([5]; CLG ratio 0, moisture content 3.69 %(m/m)): 79.16 °C
Tg ([5]; CLG ratio 0, moisture content 9.86 %(m/m)): 29.77 °C
Tg ([5]; CLG ratio 0, moisture content 14.30 %(m/m)): 14.26 °C
Tg ([5]; CLG ratio 28.93, moisture content 0 %(m/m)): 125.01 °C
Tg ([5]; CLG ratio 28.93, moisture content 4.54 %(m/m)): 92.14 °C
Tg ([5]; CLG ratio 28.93, moisture content 5.71 %(m/m)): 87.20 °C
Tg ([5]; CLG ratio 28.93, moisture content 8.30 %(m/m)): 61.35 °C
Tg ([5]; CLG ratio 28.93, moisture content 9.91 %(m/m)): 40.75 °C
Tg ([5]; CLG ratio 50.44, moisture content 6.52 %(m/m)): 84.9 °C
Tg ([5]; CLG ratio 62.23, moisture content 0 %(m/m)): 144.37 °C
Tg ([5]; CLG ratio 62.23, moisture content 10.00 %(m/m)): 58.91 °C
Tg ([5]; CLG ratio 62.23, moisture content 10.37 %(m/m)): 56.54 °C
Tg ([5]; CLG ratio %(m(CL)/m(CLG)) = 100, moisture content 0 %(m/m) (annealed)): 152.06 °C
Tg ([5]; CLG ratio %(m(CL)/m(CLG)) = 100, moisture content 5.20 %(m/m)): 112.86 °C
Tg ([5]; CLG ratio %(m(CL)/m(CLG)) = 100, moisture content 10.15 %(m/m)): 58.45 °C
Tg ([5]; CLG ratio %(m(CL)/m(CLG)) = 100, moisture content […](m/m)): 34.39 °C
dissolution of the freeze-dried product [6]: dissolved rapidly and completely after a few seconds
